Test results: patent US20230242552A1, “Nitrogen-Containing Heterocyclic Compound, Preparation Method Therefor and Use Thereof” (280 Bio, Inc, priority 2022, published 2023)

Key:
[1] = tested on: NCI-H358 (KRAS G12C mutation); test: Proliferation inhibition measured by CTG, NCI-H358; format: cell-based, human; settings: Homo sapiens, NCI-H358, 120 h, CellTiter Glo, 120 hours incubation
Experimental: (§1) NCI-H358 is a human non-small cell lung cancer cell line with KRAS G12C mutation; AGS is a gastric cancer cell line with KRAS G12D mutation; SW480 is a colon cancer cell lines with KRAS G12V mutation; A375 is a wild type malignant melanoma cell line. The proliferation inhibitory effect of the compounds on various mutations was evaluated by determining the proliferation inhibitory activity of the compounds on these cell lines.
(§2) The assay was conducted on either 384-well plates or 96-well plates. The procedures are as follows:
(§3) The cell suspensions were added to 384- or 96-well plates (384-well plate: 40 μL; 96-well plate: 100 μL) except for peripheral wells. The plates were incubated in a carbon dioxide incubator overnight. Prepared compounds (10 concentration gradients by serial 3-fold dilution) were added to the wells. The cell plates were incubated in a carbon dioxide incubator for 120 hours. CellTiter Glo reagent (384 well plate: 25 μL; 96 well plate: 100 μL) was added to the 384- or 96-well plates. The plates were shaken for 10 minutes away from light, and incubated for 10 minutes. The plates were read by EnVision system. Inhibition curves were plotted using XLFit and IC50 values were calculated. “IC50>10 μM” is denoted by “*”, “10 μM≥IC50>1 μM” is denoted by […] is denoted by “***”, “---” means no data.

[2] = tested on: AGS (gastric cancer cell line with KRAS G12D mutation); test: Proliferation inhibition measured by CTG, AGS; format: cell-based; settings: 120 h, CellTiter Glo, 120 hours incubation
Experimental: as §1, §2, §3

[3] = tested on: SW480 (colon cancer cell lines with KRAS G12V mutation); test: Proliferation inhibition measured by CTG, SW480; format: cell-based; settings: Homo sapiens, SW480, 120 h, CellTiter Glo, 120 hours incubation
Experimental: as §1, §2, §3

[4] = tested on: A375 (wild type malignant melanoma cell line); test: Proliferation inhibition measured by CTG, A375; format: cell-based; settings: Homo sapiens, A-375, 120 h, CellTiter Glo, 120 hours incubation
Experimental: as §1, §2, §3

SMILES	IC50 [1] [nM]	IC50 [2] [nM]	IC50 [3] [nM]	IC50 [4] [nM]
C#Cc1c(F)ccc2cc(O)cc(N3CCc4c(nc(OC[C@@H]5CCCN5C)nc4N4Cc5c(F)cncc5CC4C)C3)c12 (stereo partly drawn) [Compound 7]	1000 to 10000	≤ 1000	1000 to 10000	1000 to 10000
C[C@H]1Cc2cncc(F)c2CN1c1nc(OC[C@@H]2CCCN2C)nc2c1CCN(c1cccc3ccncc13)C2 [Compound 18]	1000 to 10000	1000 to 10000	1000 to 10000	1000 to 10000
C[C@H]1Cc2cncc(F)c2CN1c1nc(OC[C@@H]2CCCN2C)nc2c1CCN(c1cccc3ncccc13)C2 [Compound 14]	1000 to 10000	1000 to 10000	1000 to 10000	1000 to 10000
C[C@H]1Cc2cncc(F)c2CN1c1nc(OC[C@@H]2CCCN2C)nc2c1CCN(c1cccc3cccnc13)C2 [Compound 17]	≤ 1000	≤ 1000	≤ 1000	1000 to 10000
C[C@@H]1Cc2cncc(F)c2CN1c1nc(OC[C@@H]2CCCN2C)nc2cc(-c3cccc4cccnc34)ccc12 [Compound 33]	≤ 1000	≤ 1000	≤ 1000	≤ 1000

Second part, the compound after the results:

IC50 [1] [nM]	IC50 [2] [nM]	IC50 [3] [nM]	IC50 [4] [nM]	SMILES
1000 to 10000	1000 to 10000	1000 to 10000	> 10000	C[C@H]1Cc2cncc(F)c2CN1c1nc(OC[C@H]2COCCN2C)nc2c1CCN(c1cccc3cccc(F)c13)C2 [Compound 24]
1000 to 10000	≤ 1000	1000 to 10000	1000 to 10000	C[C@H]1Cc2cncc(F)c2CN1c1nc(OC[C@H]2CCCCN2C)nc2c1CCN(c1cccc3cccc(F)c13)C2 [Compound 23]
≤ 1000	≤ 1000	≤ 1000	≤ 1000	C[C@@H]1Cc2cncc(F)c2CN1c1nc(OC[C@@H]2CCCCN2C)nc2c1CCN(c1cccc3cccc(F)c13)C2 [Compound 28]
≤ 1000	≤ 1000	≤ 1000	≤ 1000	C[C@@H]1Cc2cncc(F)c2CN1c1nc(OC[C@@H]2CCCN2C)nc2c1CCN(c1cccc3cccnc13)C2 [Compound 32]
